What was measured:
[1] = target: T1, cloned human and rat GPR-14 (UniProt Q9UKP6); test: Radioligand binding, [125I] h-U-II on HEK-293 cell membranes; conditions: HEK-293 cell membranes with stable cloned GPR-14, 200 pM [125I] h-U-II; species of receptor not given
T1 sequence (Q9UKP6 1-389): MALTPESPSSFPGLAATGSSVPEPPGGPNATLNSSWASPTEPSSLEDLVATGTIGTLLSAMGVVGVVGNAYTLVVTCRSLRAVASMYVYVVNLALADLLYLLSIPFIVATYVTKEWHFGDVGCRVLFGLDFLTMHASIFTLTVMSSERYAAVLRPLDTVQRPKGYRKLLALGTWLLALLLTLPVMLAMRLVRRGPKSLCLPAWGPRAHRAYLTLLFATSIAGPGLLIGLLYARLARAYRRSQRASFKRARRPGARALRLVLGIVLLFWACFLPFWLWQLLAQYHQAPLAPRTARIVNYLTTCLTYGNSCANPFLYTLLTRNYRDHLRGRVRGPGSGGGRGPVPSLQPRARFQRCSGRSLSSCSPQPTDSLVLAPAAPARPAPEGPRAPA
Protocol: HEK-293 cell membranes containing stable cloned human and rat GPR-14 (20 ug/assay) were incubated with 200 pM [125I] h-U-II (200 Ci/mmol^−1 in the presence of increasing concentrations of test compounds in DMSO (0.1 nM to 10 uM), in a final incubation volume of 200 ul (20 mM Tris-HCl, 5 mM MgCl2). Incubation was done for 30 minutes at room temperature followed by filtration GF/B filters with Brandel cell harvester. ^125I labeled U-II binding was quantitated by gamma counting. Nonspecific binding was defined by ^125I U-II binding in the presence of 100 nM of unlabeled human U-II. Analysis of the data was performed by nonlinear least square fitting.

SMILES | melting point | Ki [1]
CN(C)CCOc1cc(NS(=O)(=O)c2ccc(Oc3cccc(Cl)c3C#N)cc2)ccc1Cl [Example 1, 4-(3-Chloro-2-cyano-phenoxy)N-[4-chloro-3-(2-dimethylamino-ethoxy)-phenyl]-benzenesulfonamide] | 103 to 106 °C (dec.) | –
CCN(CC)CCOc1cc(NS(=O)(=O)c2cc(Cl)c(Oc3ccc([N+](=O)[O-])cc3Cl)c(Cl)c2)ccc1Cl [Example 19, 3,5-Dichloro-N-[4-chloro-3-(2-diethylamino-ethoxy)-phenyl]-4-(2-chloro-4-nitro-phenoxy)-benzenesulfonamide] | – | 520 nM
